According to US5444077A, “Ameliorant of cerebral circulation and optical isomer of NB-818, processes for its use” (Banyu Pharmaceutical Co., Ltd., priority 1987, dated 1995):

What was measured:
vertebral artery [1] = experiment: Effect to increase the blood flow of the vertebral artery in anesthetized beagle dogs (Pharmacological Test Example 1); assay type: in vivo, beagle dog
Protocol: (§1) Effect to increase the blood flow of the vertebral artery
(§2) A male or female beagle dog having a body weight of about 10 kg was anesthetized by subcutaneous administration of 35 mg/kg of sodium pentobarbital, and the level of anesthesia was maintained by continuous injection of from 4 to 6 mg/kg/hr of sodium pentobarbital.
(§3) The test was conducted by maintaining the blood gases under optimum conditions under artificial respiration. A drug was dissolved in a 0.9 wt % saline containing 10% by weight of polyethylene glycol and 10% by weight of ethanol, and a predetermined amount of the solution was intravenously or intraduodenally injected to the beagle dog. Then, the blood flow, the blood pressure and the heart rate were measured.
The blood flow was measured by an electromagnetic flow meter by means of blood flow probes attached to the vertebral artery and the femoral artery of the beagle dog. The blood pressure was measured by a pressure transducer connected to a canule inserted to the left femoral artery of the beagle dog.

vertebral artery [2] = experiment: Effect of optical isomers to increase the blood flow of the vertebral artery in anesthetized beagle dogs (Pharmacological Test Example 6); assay type: in vivo, beagle dog; settings: intravenous
Protocol: as §1, §2
as §3, with “intravenously” for “intravenously or intraduodenally”
The blood flow was measured by an electromagnetic flow meter by means of blood flow probes attached to the vertebral artery and the femoral artery of the beagle dog. The blood pressure was measured by a pressure transducer connected to a canule inserted to the left femoral artery of the beagle dog. Further, the heart rate was measured by a heart rate counter based on the pulse wave of blood pressure.
The levo-rotatory optical isomer of 2-carbamoyloxymethyl-4-(2,3-dichlorophenyl)-6-methyl-1,4-dihydropyridine-3,5-dicarboxylic acid 3-isopropyl ester 5-methyl ester will be hereinafter referred to simply as (-)-NB-818, and the dextro-rotatory optical isomer thereof will be referred to simply as (+)-NB-818.

vertebral artery [3] = experiment: as above; assay type: in vivo, beagle dog
[4] = test system: cerebral regional blood flow; experiment: Effect to increase the cerebral regional blood flow in monkeys (Pharmacological Test Example 3); assay type: in vivo, Rhesus monkey; settings: 0.01 mg/kg, intravenous
Protocol: Effect to increase the cerebral regional blood flow in monkeys
A male Rhesus monkey having a body weight of from 5.0 to 11.0 kg was anesthetized with ketamine hydrochloride (1 mg/kg by intravenous injection) and sodium pentobarbital (30 mg/kg by intraperitoneal injection), and an endotracheal tube was inserted for artificial respiration. Then, the animal's head was fixed to a stereotaxic apparatus. The cerebral blood flow was calculated from the hydrogen gas clearance curve measured by means of needle type electrodes for hydrogen gas clearance inserted to the cerebral cortex after incising the head and boring a hole in the occipital lobe.
The drug was dissolved in a 0.9 wt % saline containing 10% by weight of polyethylene glycol 300 and 10% by weight of ethanol, and the solution was intravenously administered.

[5] = test system: cerebral isochemia models of Mongolian gerbils; experiment: Effect to prolong the life in the cerebral ischemia models of Mongolian gerbils (Pharmacological Test Example 4); assay type: in vivo, Mongolian gerbil; settings: 0.01 mg/kg, intraperitoneal; control 100
Protocol: Effect to prolong the life in the cerebral isochemia models of Mongolian gerbils
A male Mongolian gerbil having a body weight of about 70 g was anesthetized by intraperitoneal administration of 70 mg/kg of ketamine hydrochloride. Then, left and right common carotid arteries were exposed and closed by scorbil clips for 20 minutes. Then, the clips were removed to regain the blood flow. Thirty minutes later, a drug dissolved in a 0.9 wt % saline containing 10% by weight of polyethylene glycol 300 and 10% by weight of ethanol, was intraperitoneally administered. The effect to prolong the life was determined by observing mortality and the neurotic symptom during 8 hours or 24 hours from the administration of the drug.

amnesia induced by ECS [6] = experiment: Effect against amnesia induced by ECS, passive avoidance, pretreatment with drug administration (Pharmacological Test Example 5); assay type: in vivo, rat; settings: 3 mg/kg p.o.; for Latent reaction time, acquisition test: control 8.6 ± 1.3; for Latent reaction time, 2 hours later: control 49.2 ± 8.1; for Latent reaction time, 2 hours later / Latent reaction time, 24 hours later: * P < 0.05 vs control; for Latent reaction time, 24 hours later: control 85.6 ± 22.0
Source text: (§4) By using male rats having a body weight of about 200 g, the antiamnesic effect was examined on the basis of one trial passive avoidance reaction as an index. Namely, a rat is put in a light chamber of an operant box comprising the light chamber and a dark chamber, and when the rat entered into the dark chamber, an electric stimulation (5 mA for 10 seconds) was applied from the floor and immediately an electric shock (30 mA, 0.75 second) (hereinafter referred to simply as ECS) was applied to the head of the rat. Two hours or 24 hours after the ECS, the rat was put in the light chamber, and the time until the rat entered from the light chamber to the dark chamber (the latent reaction time) was measured,
The drug was suspended in a 0.5 wt % methyl cellulose and orally administered three times at intervals of 24 hours so that the final administration was conducted one hour prior to ECS.

[7] = test system: cerebral regional blood flow; experiment: Effect to increase the cerebral regional blood flow in rabbits (Pharmacological Test Example 2); assay type: in vivo, rabbit; settings: 0.01 mg/kg, intravenous
Protocol: A male rabbit having a body weight of about 3 kg was immobilized by intravenous injection of gallamine (2-3 mg/kg) and secured to an apparatus for fixing the brain position. Then, platinum electrodes for measuring hydrogen gas clearance were inserted to the top of cerebral cortex, to the center of the cerebellum and to the femoral muscle, and the blood flows were measured. The drug was dissolved in a 0.9 wt % saline containing 10% by weight of polyethylene glycol and 10% by weight of ethanol, and the solution was intravenously injected.

amnesia induced by ECS [8] = experiment: Effect against amnesia induced by ECS, passive avoidance, post-treatment with drug administration (Pharmacological Test Example 5); assay type: in vivo, rat; settings: 1 mg/kg p.o.
Source text: as §4
In a separate test, the drug was orally administered at the same time as ECS, and the latent reaction time was measured two hours later, or NB-818 was again administered 22 hours later and then the latent reaction time was measured two hours later.

[9] = Acute toxicity (LD50) upon oral administration to rats; settings: rat, in vivo
Source text: Thus, it is particularly advantageous for the treatment and prevention of the above diseases, for which continuous administration for a long period of time is obliged. Thus, its value as a pharmaceutical is very high.

SMILES: CCOC(=O)C1=C(COC(N)=O)NC(C)=C(C(=O)OC)C1c1cccc(Cl)c1Cl (stereo not shown) [Compound B, 2-Carbamoyloxymethyl-4-(2,3-dichlorophenyl)-6-methyl-1,4-dihydropyridine-3,5-dicarboxylic acid 3-ethyl ester 5-methyl ester]
- Change in blood pressure (vertebral artery [1]; 0.01 mg/kg iv): -14%
- Change in femoral artery blood flow (vertebral artery [1]; 0.01 mg/kg iv): +16%
- Change in vertebral artery blood flow (vertebral artery [1]; 0.01 mg/kg iv): +50%
- Effective period (Half-life period) (vertebral artery [1]; 0.01 mg/kg iv): 36 min

SMILES: CCCOC(=O)C1=C(COC(N)=O)NC(C)=C(C(=O)OC)C1c1cccc(Cl)c1Cl (stereo not shown) [Compound C, 2-Carbamoyloxymethyl-4-(2,3-dichlorophenyl)-6-methyl-1,4-dihydropyridine-3,5-dicarboxylic acid 3-propyl ester 5-methyl ester]
- Change in blood pressure (vertebral artery [1]; 0.01 mg/kg iv): -15%
- Change in femoral artery blood flow (vertebral artery [1]; 0.01 mg/kg iv): +20%
- Change in vertebral artery blood flow (vertebral artery [1]; 0.01 mg/kg iv): +95%
- Effective period (Half-life period) (vertebral artery [1]; 0.01 mg/kg iv): 42 min

SMILES: COC(=O)C1=C(C)NC(COC(N)=O)=C(C(=O)OC(C)C)C1c1cccc(Cl)c1Cl (single isomer, unassigned; (-)) [(-)-NB-818, levo-rotatory optical isomer of 2-carbamoyloxymethyl-4-(2,3-dichlorophenyl)-6-methyl-1,4-dihydropyridine-3,5-dicarboxylic acid 3-isopropyl ester 5-methyl ester]
- Change in femoral artery blood flow (vertebral artery [2]; 0.01 mg/kg): +3.3%
- Change in heart rate (vertebral artery [2]; 0.01 mg/kg): +3.4%
- Change in vertebral artery blood flow (vertebral artery [2]; 0.01 mg/kg): +123.2%
- Effective period (Half-life period) (vertebral artery [2]; 0.01 mg/kg): 44 min
- Change in blood pressure (vertebral artery [3]; 0.01 mg/kg, intravenous): -26.6%

SMILES: COC(=O)C1=C(C)NC(COC(N)=O)=C(C(=O)OC)C1c1cccc(Cl)c1Cl (stereo not shown) [Compound A, 2-Carbamoyloxymethyl-4-(2,3-dichlorophenyl)-6-methyl-1,4-dihydropyridine-3,5-dicarboxylic acid 3,5-dimethyl ester]
- Change in blood pressure (vertebral artery [1]; 0.01 mg/kg iv): -13%
- Change in femoral artery blood flow (vertebral artery [1]; 0.01 mg/kg iv): +14%
- Change in vertebral artery blood flow (vertebral artery [1]; 0.01 mg/kg iv): +76%
- Effective period (Half-life period) (vertebral artery [1]; 0.01 mg/kg iv): 9 min

SMILES: COC(=O)C1=C(C)NC(C)=C(C(=O)OCCN(C)Cc2ccccc2)C1c1cccc([N+](=O)[O-])c1 (stereo not shown) [Nicardipine, nicardipine]
- Change in blood pressure [4]: -24%
- Change in cerebral cortex blood flow [4]: +16%
- Change in heart rate [4]: +18%
- Effective period (Half-life period) [4]: < 30 min
- Mortality, 0-8 hours [5]: 83.3%
- Mortality, 0-24 hours [5]: 91.7%

SMILES: COC(=O)C1=C(C)NC(COC(N)=O)=C(C(=O)OC(C)C)C1c1cccc(Cl)c1Cl (single isomer, unassigned; (+)) [(+)-NB-818]
- Change in femoral artery blood flow (vertebral artery [2]; 0.1 mg/kg): +18.8%
- Change in heart rate (vertebral artery [2]; 0.1 mg/kg): +3.8%
- Change in blood pressure (vertebral artery [3]; 0.1 mg/kg, intravenous): -8.1%
- Change in vertebral artery blood flow (vertebral artery [3]; 0.1 mg/kg, intravenous): +56.8%
- Effective period (Half-life period) (vertebral artery [3]; 0.1 mg/kg, intravenous): 15.5 min

SMILES: COCCOC(=O)C1=C(C)NC(C)=C(C(=O)OC(C)C)C1c1cccc([N+](=O)[O-])c1 (stereo not shown) [Nimodipine, nimodipine]
- Change in blood pressure (vertebral artery [1]; 0.3 mg/kg id (intraduodenal)): -29%
- Change in femoral artery blood flow (vertebral artery [1]; 0.3 mg/kg id (intraduodenal)): +75%
- Change in vertebral artery blood flow (vertebral artery [1]; 0.3 mg/kg id (intraduodenal)): +102%
- Effective period (Half-life period) (vertebral artery [1]; 0.3 mg/kg id (intraduodenal)): 150 min
- Mortality, 0-8 hours [5]: 83.3%
- Mortality, 0-24 hours [5]: 91.7%
- Latent reaction time, acquisition test (amnesia induced by ECS [6]): 9.6 ± 1.3 s
- Latent reaction time, 2 hours later (amnesia induced by ECS [6]): 103.9 ± 22.2 s
- Latent reaction time, 24 hours later (amnesia induced by ECS [6]): 132.1 ± 25.5 s
- Change in blood pressure (vertebral artery [3]; 0.3 mg/kg, intraduodenal): -29%
- Change in femoral artery blood flow (vertebral artery [3]; 0.3 mg/kg, intraduodenal): +75%
- Change in heart rate (vertebral artery [3]; 0.3 mg/kg, intraduodenal): -23%
- Change in vertebral artery blood flow (vertebral artery [3]; 0.3 mg/kg, intraduodenal): +102%
- Effective period (Half-life period) (vertebral artery [3]; 0.3 mg/kg, intraduodenal): 150 min
- Blood flow change, cerebellum blood flow [7]: +55%
- Blood flow change, cerebral blood flow [7]: +68%
- Blood flow change, femoral muscle blood flow [7]: -5%
- Effective period (Half-life period) [7]: 20.6 min

SMILES: CCCCOC(=O)C1=C(COC(N)=O)NC(C)=C(C(=O)OC)C1c1cccc(Cl)c1Cl (stereo not shown) [Compound D, 2-Carbamoyloxymethyl-4-(2,3-dichlorophenyl)-6-methyl-1,4-dihydropyridine-3,5-dicarboxylic acid 3-butyl ester 5-methyl ester]
- Change in blood pressure (vertebral artery [1]; 0.01 mg/kg iv): -14%
- Change in femoral artery blood flow (vertebral artery [1]; 0.01 mg/kg iv): +13%
- Change in vertebral artery blood flow (vertebral artery [1]; 0.01 mg/kg iv): +80%
- Effective period (Half-life period) (vertebral artery [1]; 0.01 mg/kg iv): 44 min

SMILES: COC(=O)C1=C(C)NC(COC(N)=O)=C(C(=O)OC(C)C)C1c1cccc(Cl)c1Cl (stereo not shown) [NB-818, 2-Carbamoyloxymethyl-4-(2,3-dichlorophenyl)-6-methyl-1,4-dihydropyridine-3,5-dicarboxylic acid 3-isopropyl ester 5-methyl ester]
- Latent reaction time, acquisition test (amnesia induced by ECS [8]; control 9.0 ± 1.5): 8.3 ± 1.2 s
- Latent reaction time, 2 hours later (amnesia induced by ECS [8]; control 30.6 ± 3.0, * P < 0.05 vs control): 88.5 ± 17.9 s
- Latent reaction time, 24 hours later (amnesia induced by ECS [8]; control 42.5 ± 9.0, * P < 0.05 vs control): 111.8 ± 21.5 s
- Change in blood pressure (vertebral artery [1]; 0.01 mg/kg iv): -14%
- Change in femoral artery blood flow (vertebral artery [1]; 0.01 mg/kg iv): +12%
- Change in vertebral artery blood flow (vertebral artery [1]; 0.01 mg/kg iv): +109%
- Effective period (Half-life period) (vertebral artery [1]; 0.01 mg/kg iv): 57 min
- Change in blood pressure (vertebral artery [1]; 0.1 mg/kg id (intraduodenal)): -18%
- Change in femoral artery blood flow (vertebral artery [1]; 0.1 mg/kg id (intraduodenal)): +36%
- Change in vertebral artery blood flow (vertebral artery [1]; 0.1 mg/kg id (intraduodenal)): +135%
- Effective period (Half-life period) (vertebral artery [1]; 0.1 mg/kg id (intraduodenal)): > 300 min
- influence over the blood pressure and the heart rate (vertebral artery [1]; at dose level selectively increasing vertebral artery blood flow): minimum
- Change in blood pressure [4]: -20%
- Change in cerebral cortex blood flow [4]: +28%
- Change in heart rate [4]: +16%
- Effective period (Half-life period) [4]: > 60 min
- Mortality, 0-8 hours [5]: 38.5%
- Mortality, 0-24 hours [5]: 76.9%
- Latent reaction time, acquisition test (amnesia induced by ECS [6]): 11.4 ± 1.3 s
- Latent reaction time, 2 hours later (amnesia induced by ECS [6]): 128.8 ± 21.8 s
- Latent reaction time, 24 hours later (amnesia induced by ECS [6]): 189.6 ± 24.6 s
- LD50 [9]: ≥ 3000 mg/kg
- Blood flow change, cerebellum blood flow [7]: +85%
- Blood flow change, cerebral blood flow [7]: +82%
- Blood flow change, femoral muscle blood flow [7]: +3%
- Effective period (Half-life period) [7]: 44.6 min
